Measurements: US8586611B2 (priority 2005, dated 2013)

Legend:
Type in all cases: in vivo
Phytophthora infestans [1] = assay: whole plant or invertebrate; conditions: tomato late blight, spray the day before inoculation
[2] = tested on: Erysiphe graminis f. sp. tritici; assay: Test E: wheat powdery mildew, spray the day before inoculation (disease rating, 100 = 100% disease control); conditions: spray the day before inoculation
Procedure, shortened: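 Wheat seedlings sprayed to run-off with compound suspended in acetone/water 50/50 with 250 ppm Trem 014 (200 ppm equivalent to 500 g/ha); inoculated next day with Erysiphe graminis f. sp. tritici spore dust. Kept 7 days at 20° C, then rated 0–100% disease control versus controls.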

Phytophthora infestans [3] = assay: whole plant or invertebrate; conditions: tomato late blight, spray 17 h after inoculation
Plasmopara viticola = assay: Test B: grape downy mildew, spray 24 h after inoculation (disease rating, 100 = 100% disease control); conditions: spray 24 h after inoculation
Procedure, shortened: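 Grape seedlings were inoculated with Plasmopara viticola and held 24 h saturated at 20 °C, then sprayed to run-off with compound suspension (acetone/water with 250 ppm Trem 014; 200 ppm ≈ 500 g/ha). After 5 days at 20 °C and 24 h saturation, disease was rated from 0 to 100% control versus untreated.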

[4] = compounds without asterisk (not 40 or 10 ppm)

Compound	Test C disease rating (100 = 100% disease control, 0 = no disease control) (Phytophthora infestans [1]; [4]) [%]	Test E disease rating (100 = 100% disease control, 0 = no disease control) [2, 4] [%]	Test D disease rating (100 = 100% disease control, 0 = no disease control) (Phytophthora infestans [3]; [4]) [%]	Test B disease rating (100 = 100% disease control, 0 = no disease control) (Plasmopara viticola; [4]) [%]	Test C disease rating (100 = 100% disease control, 0 = no disease control) (Phytophthora infestans [1]; tested at 10 ppm) [%]	Test E disease rating (100 = 100% disease control, 0 = no disease control) ([2]; tested at 10 ppm) [%]	Test D disease rating (100 = 100% disease control, 0 = no disease control) (Phytophthora infestans [3]; tested at 10 ppm) [%]	Test B disease rating (100 = 100% disease control, 0 = no disease control) (Plasmopara viticola; tested at 10 ppm) [%]	also measured
Cc1ccc(C)c(CC(=O)N2CCC(c3nc(C(=O)N(C)C4CCOc5ccccc54)cs3)CC2)c1 (centres unmarked) [compound 137]	51	0	93	100					
Cc1ccc(C)c(CC(=O)N2CCC(c3nc(C(=O)N(C)C4COc5ccccc54)cs3)CC2)c1 (centres unmarked) [compound 138]	100	44	37	91					
CC(C)c1nccn1CC(=O)N1CCC(c2nc(C(=O)N(C)[C@H](C)c3ccccc3)cs2)CC1 [compound 139]	0	0	0	0					
C[C@H](c1ccccc1)N(C)C(=O)c1csc(C2CCN(C(=O)Cn3cnc(C4CCCCC4)n3)CC2)n1 [compound 140]	0	0	0	0					
C[C@H](c1ccccc1)N(C)C(=O)c1csc(C2CCN(C(=O)Cn3cnc(C(C)(C)C)c3)CC2)n1 [compound 141]	0	0	0	0					
CCC(C)c1cc(C)n(CC(=O)N2CCC(c3nc(C(=O)N(C)[C@H](C)c4ccccc4)cs3)CC2)n1 (some centres unmarked) [compound 142]	0	87	0	0					
COc1ccccc1NC(=O)N1CCC(c2nc(C(=O)N(C)[C@H](C)c3ccccc3)co2)CC1 [compound 157]	100	0	91	63					
CN(Cc1cccnc1)C(=O)c1csc(C2CCN(C(=O)Cc3cccc(C(F)(F)F)c3)CC2)n1 [compound 163]	55	0	0	24					
Cc1cccc(CC(=O)N2CCC(c3nc(C(=O)N(C)Cc4cccnc4)cs3)CC2)c1 [compound 164]	60	0	0	1					
Cc1cccc(CC(=O)N2CCC(c3nc(C(=O)N(C)Cc4ccccn4)cs3)CC2)c1 [compound 165]	14	0	0	11					
Cc1ccc(C)c(CC(=O)N2CCC(c3nc(C(=O)N(C)[C@H](C)C4CCCCC4)cs3)CC2)c1 [compound 166]	68	0	16	34					
CN(Cc1ccccn1)C(=O)c1csc(C2CCN(C(=O)Cc3cccc(C(F)(F)F)c3)CC2)n1 [compound 168]	8	0	0	15					
CN(Cc1ccncc1)C(=O)c1csc(C2CCN(C(=O)Cc3cccc(C(F)(F)F)c3)CC2)n1 [compound 169]	68	0	0	8					
Cc1cccc(CC(=O)N2CCC(c3nc(C(=O)N(C)Cc4ccncc4)cs3)CC2)c1 [compound 170]	29	0	0	7					
Cc1cc(C(F)(F)F)nn1CC(=O)N1CCC(c2nc(C(=O)N(C)C3CCOc4ccccc43)cs2)CC1 (centres unmarked) [compound 179]					100	0	87	96	
Cc1cc(C(F)(F)F)nn1CC(=O)N1CCC(c2nc(C(=O)N(C)C3CCSc4ccccc43)cs2)CC1 (centres unmarked) [compound 180]					100	0	92	47	
Cc1cc(C(F)(F)F)nn1CC(=O)N1CCC(c2nc(C(=O)N(C)C3CCCCc4ccccc43)cs2)CC1 (centres unmarked) [compound 181]					100	0	98	73	
Cc1cc(C(F)(F)F)nn1CC(=O)N1CCC(c2nc(C(=O)N(C)C3CCCc4sccc43)cs2)CC1 (centres unmarked) [compound 182]									Test C disease rating (100 = 100% disease control, 0 = no disease control) (Phytophthora infestans [1]; tested at 40 ppm): 100%; Test E disease rating (100 = 100% disease control, 0 = no disease control) ([2]; tested at 40 ppm): 0%; Test D disease rating (100 = 100% disease control, 0 = no disease control) (Phytophthora infestans [3]; tested at 40 ppm): 98%; Test B disease rating (100 = 100% disease control, 0 = no disease control) (Plasmopara viticola; tested at 40 ppm): 99%
Cc1cc(C(F)(F)F)nn1CC(=O)N1CCC(c2nc(C(=O)N(C)C3CCCc4occc43)cs2)CC1 (centres unmarked) [compound 183]					40	0	16	0	
Cc1cc(C(F)(F)F)nn1CC(=O)N1CCC(c2nc(C(=O)N(C)C3COc4ccccc43)cs2)CC1 (centres unmarked) [compound 184]					99	0	76	77	
Cc1cc(C(F)(F)F)nn1CC(=O)N1CCC(c2nc(C(=O)N(C)C3CSCc4ccccc43)cs2)CC1 (centres unmarked) [compound 185]					100	0	98	99	
Cc1cc(C(F)(F)F)nn1CC(=O)N1CCC(c2nc(C(=O)N(C)C3CCCCC3c3ccccc3)cs2)CC1 (centres unmarked) [compound 186]					97	0	58	0	
Cc1cc(C(F)(F)F)nn1CC(=O)N1CCC(c2nc(C(=O)N(C)C3CCCc4c(O)cccc43)cs2)CC1 (centres unmarked) [compound 189]	100	0	99	93					
